The assay addresses T1, hP2X7 (Homo sapiens, UniProt Q99572).
T1 construct: expressed in transfected cells; host or cells: 1321N1 astrocytoma cells
T1 sequence (Q99572 1-595): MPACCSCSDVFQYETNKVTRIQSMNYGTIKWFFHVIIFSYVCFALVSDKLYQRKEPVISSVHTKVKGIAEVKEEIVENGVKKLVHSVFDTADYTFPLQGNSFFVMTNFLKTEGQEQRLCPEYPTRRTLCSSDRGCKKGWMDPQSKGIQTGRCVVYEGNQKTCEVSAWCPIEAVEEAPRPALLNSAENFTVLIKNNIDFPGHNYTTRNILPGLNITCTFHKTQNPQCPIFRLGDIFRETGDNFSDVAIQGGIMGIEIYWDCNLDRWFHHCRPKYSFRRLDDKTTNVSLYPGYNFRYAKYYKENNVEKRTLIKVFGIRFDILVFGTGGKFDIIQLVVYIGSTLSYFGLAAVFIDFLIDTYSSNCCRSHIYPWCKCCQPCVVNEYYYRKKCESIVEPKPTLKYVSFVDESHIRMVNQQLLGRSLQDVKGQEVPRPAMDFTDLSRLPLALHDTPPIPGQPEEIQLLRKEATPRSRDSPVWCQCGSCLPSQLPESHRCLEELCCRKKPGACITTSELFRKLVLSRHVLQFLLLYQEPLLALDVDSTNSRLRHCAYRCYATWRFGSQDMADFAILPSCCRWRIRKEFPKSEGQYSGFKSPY
Description: P2X7 antagonism: ligand-induced Ca2+ flux in 1321N1 astrocytoma cells overexpressing hP2X7. The conditions noted are these: pIC50 = -log(IC50), read-out: hP2RX7pIC50 (mean pIC50 values) (converted). The assay is classed as cell-based. The method, then: Extracellular binding of ATP to P2X7 that is expressed in the cell-membrane opens the ligand gated cation channel and allows Ca^2+ entry into the cell. This ligand-induced Ca^2+ flux was measured in 1321N1 astrocytoma cells overexpressing hP2X7 for the compounds of the present invention.
The calcium assay kit used (Molecular Devices, R8090), provides a Ca^2+ sensitive dye together with a quenching dye. However, no specifications are given by the manufacturer. The kit most likely consists of a membrane permeable acetoxymethyl (AM) ester of a fluorescent Ca^2+ indicator, such as fluo-4 or fluo-3. Upon cellular uptake, the AM esters get cleaved by esterases, liberating the Ca^2+-sensitive dye which can then bind calcium. The dyes have an absorption spectrum compatible with excitation at 488 nm by argon laser sources and a large fluorescence intensity increase in response to Ca^2+ binding without an accompanying spectral shift. Emission wavelength is in the range of 510-560 nm.
The fluorescence, and thus the changes in intracellular [Ca^2+] in the 1321N1 cells was monitored in time before and after addition of the agonist. The effect of the antagonist was measured as % control and as IC50.
In general terms: Calcium assays in cells follow changes in intracellular calcium, usually with a dye or a luminescent sensor.
As to `O=C(NCC(c1ccc(C(F)(F)F)nc1)N1CCC(F)(F)CC1)c1cccc2ncccc12` (single isomer, unassigned) [Compound 10], the IC50 was 43.7 nM. In the case of `O=C(NCC(c1ccc(C(F)(F)F)nc1)N1CCC(F)(F)CC1)c1cccc2ncccc12` (single isomer, unassigned) [Compound 11] it was 52.5 nM. As to `O=C(NCC(c1cnc(C(F)(F)F)nc1)N1CCC(F)(F)CC1)c1cccc2ncccc12` (single isomer, unassigned) [Compound 47], the IC50 was 38 nM. The figure for `O=C(NC[C@H](c1cnc(C(F)(F)F)nc1)N1CCOCC1)c1cccc2nc(NC3CC3)ccc12` (single isomer, unassigned) [Compound 174] is 66.1 nM. `O=C(NCC(c1ccc(C(F)(F)F)nc1)N1CCC(F)(F)CC1)c1cccc2ncccc12` (centres unmarked) [Compound 1]: the IC50 is 58.9 nM. `O=C(NCC(c1ccc(Br)nc1)N1CCC(F)(F)CC1)c1cccc2ncccc12` (centres unmarked) [Compound 2]: the IC50 was 21.4 nM. Consider `O=C(NCC(c1cccnc1Cl)N1CCC(F)(F)CC1)c1cccc2ncccc12` (centres unmarked) [Compound 3], for which the IC50 is 3630 nM. Consider `COc1cc(C(=O)NCC(c2ccc(C(F)(F)F)nc2)N2CCC(F)(F)CC2)nc2ccccc12` (centres unmarked) [Compound 12], for which the IC50 is 3240 nM.

As for `O=C(NCC(c1ccc(C(F)(F)F)nc1)N1CCC(F)(F)CC1)c1ccc2ccccc2n1` (centres unmarked) [Compound 14], the IC50 was 178 nM. The figure for `O=C(NCC(c1ccc(C(F)(F)F)nc1)N1CCC(F)(F)CC1)c1cccc2cnccc12` (centres unmarked) [Compound 16] is 224 nM; for `CCCc1cc(C(=O)NCC(c2ccc(C(F)(F)F)nc2)N2CCC(F)(F)CC2)c2ccccc2n1` (centres unmarked) [Compound 18] it is 55 nM. For the compound `CCc1cc2cc(C(=O)NCC(c3ccc(C(F)(F)F)nc3)N3CCC(F)(F)CC3)ccc2nc1C` (centres unmarked) [Compound 24], the IC50 was 5250 nM. In the case of `O=C(NCC(c1ccccn1)N1CCC(F)(F)CC1)c1cccc2ncccc12` (centres unmarked) [Compound 25] it was above 10000 nM. As to `O=C(NCC(c1ccc(C(F)(F)F)nc1)N1CCC(c2ccccc2)CC1)c1cccc2ncccc12` (centres unmarked) [Compound 27], the IC50 was above 10000 nM. As to `O=C(NCC(c1ccc(C(F)(F)F)nc1)N1CCOCC1)c1cccc2ncccc12` (centres unmarked) [Compound 31], the IC50 is 107 nM. The figure for `O=C(NCC(c1cnc(C(F)(F)F)nc1)N1CCC(F)(F)CC1)c1cccc2nc(NCCCO)ccc12` (centres unmarked) [Compound 40] is 34.7 nM; for `COc1ccc2c(C(=O)NCC(c3cnc(C(F)(F)F)nc3)N3CCC(F)(F)CC3)cccc2n1` (centres unmarked) [Compound 41] it is 45.7 nM. Take `O=C(NCC(c1cnc(C(F)(F)F)nc1)N1CCC(F)(F)CC1)c1cccc2nc(NCC3CC3)ccc12` (centres unmarked) [Compound 42]: the IC50 is 38 nM. For `O=C(NCC(c1cnc(C(F)(F)F)nc1)N1CCCC1)c1cccc2ncccc12` (centres unmarked) [Compound 45], the IC50 was 955 nM. On to `O=C(NCC(c1cnc(C(F)(F)F)nc1)N1CCCCCC1)c1cccc2ncccc12` (centres unmarked) [Compound 52], for which the IC50 is 19.1 nM. The figure for `O=C(NCC(c1cnc(C(F)(F)F)nc1)N1CCC(F)(F)CC1)c1cccc2nc(N3CCC(O)C3)ccc12` (centres unmarked) [Compound 56] is 49 nM. For `O=C(NCC(c1cnc(C(F)(F)F)nc1)N1CCCC(F)(F)C1)c1cccc2ncccc12` (centres unmarked) [Compound 66], the IC50 is 18.2 nM.

On to `O=C(NCC(c1cnc(C(F)(F)F)nc1)N1CCCC(F)C1)c1cccc2ncccc12` (centres unmarked) [Compound 71], for which the IC50 was 30.9 nM. On to `CC1CN(C(CNC(=O)c2cccc3ncccc23)c2cnc(C(F)(F)F)nc2)CCO1` (centres unmarked) [Compound 72], for which the IC50 was 302 nM.

On to `CC1CCCCN1C(CNC(=O)c1cccc2ncccc12)c1cnc(C(F)(F)F)nc1` (centres unmarked) [Compound 73], for which the IC50 was 50.1 nM. On to `O=C(NCC(c1cnc(C(F)(F)F)nc1)N1CCCOCC1)c1cccc2nc(N3CCOCC3)ccc12` (centres unmarked) [Compound 87], for which the IC50 was 44.7 nM. As for `O=C(NCC(c1cnc(C(F)(F)F)nc1)N1CCCOCC1)c1cccc2nc(NCCO)ccc12` (centres unmarked) [Compound 89], the IC50 was 85.1 nM. As to `O=C(NCC(c1cnc(C(F)(F)F)nc1)N1CCCOCC1)c1cccc2nc(NCCCO)ccc12` (centres unmarked) [Compound 90], the IC50 is 87.1 nM.

In the case of `O=C(NCC(c1cnc(C(F)(F)F)nc1)N1CCCOCC1)c1cccc2nc(NCC3CCOCC3)ccc12` (centres unmarked) [Compound 94], the IC50 was 81.3 nM. In the case of `O=C(NCC(c1cnc(C(F)(F)F)nc1)N1CCCOCC1)c1cccc2nc(NC3CC3)ccc12` (centres unmarked) [Compound 95], the IC50 was 44.7 nM. In the case of `Cc1ncc(C(CNC(=O)c2cccc3nc(N4CCCCC4)ccc23)N2CCOCC2)cn1` (centres unmarked) [Compound 98] it was 52.5 nM; in that of `CC(C)(C)OC(=O)N1CCN(c2ccc3c(C(=O)NCC(c4cnc(C(F)(F)F)nc4)N4CCCCCC4)cccc3n2)CC1` (centres unmarked) [Compound 107], 389 nM. In the case of `O=C(NCC(c1cnc(C(F)(F)F)nc1)N1CCCCCC1)c1cccc2nc(N3CCNCC3)ccc12` (centres unmarked) [Compound 109] it was 22.4 nM; in that of `CCN1CCN(c2ccc3c(C(=O)NCC(c4cnc(C)nc4)N4CCOCC4)cccc3n2)CC1` (centres unmarked) [Compound 116], 186 nM. Take `Cc1ncc(C(CNC(=O)c2cccc3nc(OC(C)C)ccc23)N2CCOCC2)cn1` (centres unmarked) [Compound 117]: the IC50 was 182 nM. In the case of `Cc1ncc(C(CNC(=O)c2cccc3nc(N4CCN(C(C)C)CC4)ccc23)N2CCOCC2)cn1` (centres unmarked) [Compound 118] it was 162 nM. Take `Cc1ncc(C(CNC(=O)c2cccc3nc(N4CCCCCC4)ccc23)N2CCOCC2)cn1` (centres unmarked) [Compound 119]: the IC50 is 89.1 nM.

As to `CCOc1ccc2c(C(=O)NCC(c3cnc(C)nc3)N3CCOCC3)cccc2n1` (centres unmarked) [Compound 121], the IC50 is 251 nM. Consider `Cc1ncc(C(CNC(=O)c2cccc3nc(N4CCOCC4)ccc23)N2CCOCC2)cn1` (centres unmarked) [Compound 122], for which the IC50 was 115 nM. Turning to `O=C(NCC(c1cnc(C(F)(F)F)nc1)N1CCCC(F)(F)C1)c1cccc2nc(N3CCNCC3)ccc12` (centres unmarked) [Compound 127], the IC50 is 14.1 nM. On to `O=C(NCC(c1cnc(C(F)(F)F)nc1)N1CCCOCC1)c1cccc2nc(N3CCNCC3)ccc12` (centres unmarked) [Compound 128], for which the IC50 was 46.8 nM.

Consider `Cc1ncc(C(CNC(=O)c2cccc3nc(NCCCO)ccc23)N2CCC(F)(F)CC2)cn1` (centres unmarked) [Compound 132], for which the IC50 was 63.1 nM.

Consider `O=C(NCC(c1cnc(O)nc1)N1CCC(F)(F)CC1)c1cccc2nc(N3CCOCC3)ccc12` (centres unmarked) [Compound 144], for which the IC50 is 1050 nM. `O=C(NCC(c1cnc(C(F)(F)F)nc1)N1CCC(F)(F)CC1)c1cccc2nc(NCC3CCOCC3)ccc12` (centres unmarked) [Compound 146]: the IC50 was 47.9 nM.

For the compound `O=C(NCC(c1cnc(C(F)(F)F)nc1)N1CCC(F)CC1)c1cccc2nc(N3CC(O)C3)ccc12` (centres unmarked) [Compound 155], the IC50 was 64.6 nM. As to `COC1CCN(c2ccc3c(C(=O)NCC(c4cnc(C(F)(F)F)nc4)N4CCOCC4)cccc3n2)CC1` (centres unmarked) [Compound 161], the IC50 was 46.8 nM. As to `O=C(NCC(c1cnc(C(F)(F)F)nc1)N1CCOCC1)c1cccc2nc(N3CCCC3)ccc12` (centres unmarked) [Compound 162], the IC50 was 45.7 nM. For `O=C(NCC(c1cnc(C(F)(F)F)nc1)N1CCOCC1)c1cccc2nc(N3CCCCC3)ccc12` (centres unmarked) [Compound 163], the IC50 is 37.2 nM. As for `CCOc1ccc2c(C(=O)NCC(c3cnc(C(F)(F)F)nc3)N3CCOCC3)cccc2n1` (centres unmarked) [Compound 166], the IC50 is 49 nM. Take `NC1CCN(c2ccc3c(C(=O)NCC(c4cnc(C(F)(F)F)nc4)N4CCOCC4)cccc3n2)CC1` (centres unmarked) [Compound 167]: the IC50 was 117 nM. For `CC(C)Nc1ccc2c(C(=O)NCC(c3cnc(C(F)(F)F)nc3)N3CCOCC3)cccc2n1` (centres unmarked) [Compound 168], the IC50 was 75.9 nM. For the compound `O=C(NC[C@H](c1cnc(C(F)(F)F)nc1)N1CCC(F)(F)CC1)c1cccc2nc(N3CCNCC3)ccc12` [Compound 171], the IC50 is 26.9 nM. With `O=C(NCC(c1cnc(C(F)(F)F)nc1)N1CCOCC1)c1cccc2nc(N3CCC(O)C3)ccc12` (centres unmarked) [Compound 172], the IC50 is 145 nM.

On to `O=C(NCC(c1cnc(C(F)(F)F)nc1)N1CCOCC1)c1cccc2nc(N3CCN(C4CC4)CC3)ccc12` (centres unmarked) [Compound 173], for which the IC50 was 70.8 nM. Regarding `O=C(NC[C@@H](c1cnc(C(F)(F)F)nc1)N1CCC(F)(F)CC1)c1cccc2nc(NC3CC3)ccc12` [Compound 175], the IC50 was 44.7 nM.

For `O=C(NCC(c1cnc(N2CCCC2)nc1)N1CCC(F)(F)CC1)c1cccc2nc(N3CCOCC3)ccc12` (centres unmarked) [Compound 176], the IC50 was 186 nM.

Source of the values: patent publication US8431704B2, “Quinoline or isoquinoline substituted P2X7 antagonists” (Janssen Pharmaceutica NV, priority 2008, dated 2013).
